# Experimental data from ChEMBL document CHEMBL1158466, “Discovery of novel 2-aminobenzamide inhibitors of heat shock protein 90 as potent, selective and orally active antitumor agents” (J Med Chem, 2009).
# Experiments:
# [1] = Binding affinity to pig spleen Hsp90 ATPase pocket by Bradford assay; format: tissue-based, Sus scrofa
# Heat shock protein HSP90 [2] = target: T1, Heat shock protein HSP90 (Homo sapiens, UniProt P07900+P08238); format: cell-based; conditions: au565
# [3] = Half life in Swiss Webster mouse at 10 mg/kg, po; format: ADME, organism-based; design: dose 10 mg/kg, route oral; conditions: in vivo
# Mus musculus [4] = test: Toxicity in nu/nu mouse assessed as mortality at 5 to 50 mg/kg, po; format: organism-based; design: dose 5-50 mg/kg, route oral; conditions: in vivo
# [5] = Apparent volume of distribution with respect to bioavailability in Swiss Webster mouse at 25 mg/kg, po; format: ADME, organism-based; conditions: in vivo, read-out: Vc/F
# PC-3 = test: Antiproliferative activity against human PC3 cells after 72 to 144 hrs by cyquant DNA dye method; format: functional, cell-based
# LNCaP = test: Antiproliferative activity against human LNCAP cells after 72 to 144 hrs by cyquant DNA dye method; format: functional, cell-based
# NCI-H460 = test: Antiproliferative activity against human NCI-H460 cells after 72 to 144 hrs by cyquant DNA dye method; format: functional, cell-based
# [6] = Cmax in Swiss Webster mouse at 10 mg/kg, iv; format: ADME, organism-based; design: dose 10 mg/kg, route intravenous; conditions: in vivo
# [7] = Clearance in Swiss Webster mouse at 10 mg/kg, iv; conditions: in vivo
# [8] = Tmax in Swiss Webster mouse at 50 mg/kg, po; format: ADME, organism-based; design: dose 50 mg/kg, route oral; conditions: in vivo
# Mus musculus [9] = test: Toxicity in nu/nu mouse assessed as effect on body weight at 5 to 50 mg/kg, po; format: organism-based; design: dose 5-50 mg/kg, route oral; conditions: in vivo
# HCT-15 = test: Antiproliferative activity against human HCT15 cells after 72 to 144 hrs by cyquant DNA dye method; format: functional, cell-based
# [10] = Tmax in Swiss Webster mouse at 10 mg/kg, po; format: ADME, organism-based; design: dose 10 mg/kg, route oral; conditions: in vivo
# [11] = Cmax in Swiss Webster mouse at 50 mg/kg, po; format: ADME, organism-based; design: dose 50 mg/kg, route oral; conditions: in vivo
# SK-MEL-5 = test: Antiproliferative activity against human SK-MEL-5 cells after 72 to 144 hrs by cyquant DNA dye method; format: functional, cell-based
# [12] = Half life in Swiss Webster mouse at 25 mg/kg, po; format: ADME, organism-based; design: dose 25 mg/kg, route oral; conditions: in vivo
# [13] = Solubility at pH 4 to […]; format: physicochemical; conditions: buffer
# MCF7 = test: Antiproliferative activity against human MCF7 cells after 72 to 144 hrs by cyquant DNA dye method; format: functional, cell-based
# [14] = AUC (infinity) in Swiss Webster mouse at 50 mg/kg, po; format: ADME, organism-based; design: time infinity, dose 50 mg/kg, route oral; conditions: plasma
# Heat shock protein HSP90 [15] = target: T1, Heat shock protein HSP90; conditions: a-375
# Description: Inhibition of Hsp90 in human A375 cells assessed as pS6 degradation after 24 hrs by high content screening
# [16] = Apparent oral clearance in Swiss Webster mouse at 50 mg/kg, po; format: ADME, organism-based; design: dose 50 mg/kg, route oral; conditions: in vivo
# [17] = Apparent oral clearance in Swiss Webster mouse at 10 mg/kg, po; format: ADME, organism-based; design: dose 10 mg/kg, route oral; conditions: in vivo
# [18] = Tmax in Swiss Webster mouse at 25 mg/kg, po; format: ADME, organism-based; design: dose 25 mg/kg, route oral; conditions: in vivo
# [19] = Tmax in Swiss Webster mouse at 10 mg/kg, iv; format: ADME, organism-based; design: dose 10 mg/kg, route intravenous; conditions: in vivo
# MDA-MB-231 = test: Antiproliferative activity against human MDA-MB-231 cells after 72 to 144 hrs by cyquant DNA dye method; format: functional, cell-based
# [20] = AUC (infinity) in Swiss Webster mouse at 10 mg/kg, po; format: ADME, organism-based; design: time infinity, dose 10 mg/kg, route oral; conditions: plasma
# [21] = Half life in Swiss Webster mouse at 50 mg/kg, po; format: ADME, organism-based; design: dose 50 mg/kg, route oral; conditions: in vivo
# HT-29 [22] = test: Antitumor activity against human HT-29 cells xenografted nu/nu mouse assessed as tumor growth delay at 50 mg/kg, po administered 3 times a week for 3 weeks; format: functional
# [23] = AUC (infinity) in Swiss Webster mouse at 10 mg/kg, iv; format: ADME, organism-based; design: time infinity, dose 10 mg/kg, route intravenous; conditions: plasma
# [24] = Half life in Swiss Webster mouse at 10 mg/kg, iv; format: ADME, organism-based; design: dose 10 mg/kg, route intravenous; conditions: in vivo
# [25] = AUC (infinity) in Swiss Webster mouse at 25 mg/kg, po; format: ADME, organism-based; design: time infinity, dose 25 mg/kg, route oral; conditions: plasma
# HT-29 [26] = test: Antitumor activity against human HT-29 cells xenografted nu/nu mouse assessed as median time for tumor to reach end point at 50 mg/kg, po administered 3 times a week for 3 weeks; format: functional
# Heat shock protein HSP90 [27] = target: T1, Heat shock protein HSP90; conditions: a-375; remark: listed apart in the source
# Description: Inhibition of Hsp90 in human A375 cells assessed as Hsp70 induction after 24 hrs by high content screening
# HT-29 [28] = test: Antiproliferative activity against human HT-29 cells after 72 to 144 hrs by cyquant DNA dye method; format: functional, cell-based
# [29] = Apparent oral clearance in Swiss Webster mouse at 25 mg/kg, po; format: ADME, organism-based; design: dose 25 mg/kg, route oral; conditions: in vivo
# Mus musculus [30] = test: Apparent volume of distribution with respect to bioavailability in Swiss Webster mouse at 10 mg/kg, iv; format: ADME, organism-based; conditions: in vivo
# A-375 = test: Antiproliferative activity against human A375 cells after 72 to 144 hrs by cyquant DNA dye method; format: functional, cell-based
# [31] = Cmax in Swiss Webster mouse at 25 mg/kg, po; format: ADME, organism-based; design: dose 25 mg/kg, route oral; conditions: in vivo
# HT-29 [32] = test: Antitumor activity against human HT-29 cells xenografted nu/nu mouse assessed as tumor growth delay at 25 mg/kg, po administered 3 times a week for 3 weeks; format: functional
# SW-620 = test: Antiproliferative activity against human SW620 cells after 72 to 144 hrs by cyquant DNA dye method; format: functional, cell-based
# [33] = Apparent volume of distribution with respect to bioavailability in Swiss Webster mouse at 50 mg/kg, po; format: ADME, organism-based; conditions: in vivo, read-out: Vc/F
# [34] = Apparent volume of distribution with respect to bioavailability in Swiss Webster mouse at 10 mg/kg, po; format: ADME, organism-based; conditions: in vivo, read-out: Vc/F
# [35] = Cmax in Swiss Webster mouse at 10 mg/kg, po; format: ADME, organism-based; design: dose 10 mg/kg, route oral; conditions: in vivo
# Heat shock protein HSP90 [36] = target: T1, Heat shock protein HSP90; conditions: au565
# Description: Inhibition of Hsp90 in human AU565 cells assessed as pERK degradation after 24 hrs by high content screening
# K562 = test: Antiproliferative activity against human K562 cells after 72 to 144 hrs by cyquant DNA dye method; format: functional, cell-based
# [37] = Oral bioavailability in rat; format: ADME, organism-based; conditions: in vivo
# [38] = Metabolic stability in human liver S9 fraction assessed as drug remaining at 1 uM after 1 hr; format: ADME, subcellular; conditions: read-out: Stability
# [39] = Solubility of the compound; format: physicochemical
# [40] = Aqueous solubility in phosphate-buffered saline at pH 7.4; format: physicochemical
# [41] = Oral bioavailability in mouse; format: ADME, organism-based; conditions: in vivo
# Liver microsomes = test: Metabolic stability in human liver microsomes at 1 uM after 1 hr; format: ADME, Microsome
smiles,measurement,setting,value
Cc1cn(-c2ccc(C(N)=O)c(N3CCNCC3)c2)c2c1C(=O)CC(C)(C)C2,Kd,[1],0.843 µM
same,IC50,Heat shock protein HSP90 [2],> 7 µM
COc1cc(Nc2cc(-n3cc(C)c4c3CCCC4=O)ccc2C(N)=O)cc(OC)c1OC,Kd,[1],0.94 µM
same,IC50,Heat shock protein HSP90 [2],1.61 µM
CC1(C)CC(=O)c2c(C(F)(F)F)nn(-c3ccc(C(N)=O)c(N[C@H]4CC[C@H](OC(=O)CN)CC4)c3)c2C1.CS(=O)(=O)O,half-life,[3],2.5 h
same,Activity,Mus musculus [4],Non-toxic
same,Vd/F,[5],9.59 L/kg
same,IC50,PC-3,0.114 µM
same,IC50,LNCaP,0.031 µM
same,IC50,NCI-H460,0.215 µM
same,Cmax,[6],4460 ng/mL
same,Kd,[1],0.041 µM
same,clearance,[7],34.2 mL/min/kg
same,Tmax,[8],2 h
same,Activity,Mus musculus [9],Non-toxic
same,IC50,HCT-15,0.19 µM
same,Tmax,[10],1 h
same,Cmax,[11],4020 ng/mL
same,IC50,SK-MEL-5,0.025 µM
same,half-life,[12],2.9 h
same,solubility,[13],1000 µg/mL
same,IC50,MCF7,0.016 µM
same,AUC(0-inf),[14],25200 ng·h/mL
same,IC50,Heat shock protein HSP90 [15],0.061 µM
same,CL/F,[16],33.1 mL/min/kg
same,CL/F,[17],42 mL/min/kg
same,Tmax,[18],1 h
same,Tmax,[19],4.98 min
same,IC50,MDA-MB-231,0.038 µM
same,AUC(0-inf),[20],3970 ng·h/mL
same,half-life,[21],3.3 h
same,Activity,HT-29 [22],67%
same,AUC(0-inf),[23],4870 ng·h/mL
same,half-life,[24],2.6 h
same,AUC(0-inf),[25],11000 ng·h/mL
same,Activity,HT-29 [26],43.2 days
same,IC50,Heat shock protein HSP90 [27],0.013 µM
same,IC50,HT-29 [28],0.032 µM
same,IC50,Heat shock protein HSP90 [2],0.005 µM
same,CL/F,[29],37.9 mL/min/kg
same,Vc/F,Mus musculus [30],7.846 L/kg
same,IC50,A-375,0.051 µM
same,Cmax,[31],2150 ng/mL
same,Activity,HT-29 [32],14%
same,IC50,SW-620,0.019 µM
same,Vd/F,[33],9.55 L/kg
same,Vd/F,[34],8.93 L/kg
same,Cmax,[35],747 ng/mL
same,IC50,Heat shock protein HSP90 [36],0.011 µM
same,IC50,K562,0.023 µM
Cc1cn(-c2ccc(C(N)=O)c(NCCN3CCOCC3)c2)c2c1C(=O)CC(C)(C)C2,Kd,[1],0.294 µM
same,IC50,Heat shock protein HSP90 [2],> 4 µM
Cc1cn(-c2ccc(C(N)=O)c(N[C@H]3CC[C@H](O)CC3)c2)c2c1C(=O)CC(C)(C)C2,IC50,PC-3,0.014 µM
same,IC50,LNCaP,0.004 µM
same,IC50,NCI-H460,0.248 µM
same,bioavailability,[37],10%
same,Kd,[1],0.027 µM
same,IC50,HCT-15,0.061 µM
same,IC50,SK-MEL-5,0.007 µM
same,IC50,MCF7,0.01 µM
same,IC50,Heat shock protein HSP90 [15],0.007 µM
same,IC50,MDA-MB-231,0.01 µM
same,IC50,Heat shock protein HSP90 [27],0.014 µM
same,IC50,HT-29 [28],0.007 µM
same,IC50,Heat shock protein HSP90 [2],0.007 µM
same,IC50,A-375,0.009 µM
same,IC50,SW-620,0.006 µM
same,IC50,Heat shock protein HSP90 [36],0.016 µM
same,IC50,K562,0.003 µM
CC1(C)CC(=O)c2c(C(F)(F)F)nn(-c3ccc(C(N)=O)c(N[C@H]4CC[C@H](O)CC4)c3)c2C1 [SNX-2112],IC50,PC-3,0.017 µM
same,IC50,LNCaP,0.003 µM
same,IC50,NCI-H460,0.018 µM
same,Kd,[1],0.016 µM
same,IC50,HCT-15,0.052 µM
same,IC50,SK-MEL-5,0.006 µM
same,IC50,MCF7,0.053 µM
same,IC50,MDA-MB-231,0.006 µM
same,"remaining at 1 h, 1 µM",[38],88%
same,IC50,HT-29 [28],0.003 µM
same,solubility,[39],170 µM
same,IC50,A-375,0.023 µM
same,solubility,[40],6 µM
same,IC50,SW-620,0.003 µM
same,bioavailability,[41],40%
same,IC50,K562,0.006 µM
same,Stability,Liver microsomes,Stable
C=CCNC1=C2C[C@@H](C)C[C@H](OC)[C@H](O)[C@@H](C)/C=C(\C)[C@H](OC(N)=O)[C@@H](OC)/C=C\C=C(/C)C(=O)NC(=CC1=O)C2=O [TANESPIMYCIN],IC50,PC-3,0.009 µM
same,IC50,LNCaP,0.082 µM
same,IC50,NCI-H460,0.255 µM
same,Kd,[1],0.087 µM
same,IC50,HCT-15,1.49 µM
same,IC50,SK-MEL-5,0.134 µM
same,IC50,MCF7,0.0003 µM
same,IC50,MDA-MB-231,0.194 µM
same,IC50,HT-29 [28],0.0001 µM
same,IC50,A-375,1.29 µM
same,IC50,SW-620,0.328 µM
same,IC50,K562,0.126 µM
